{
  "source": "patent US9428726B2",
  "about": "“Modified host cells with efflux pumps” (priority 2010, dated 2016)",
  "molecules": {"B1": {"name": "NP_250708: Pseudomonas aeruginosa PA01 efflux pump, accession of inner membrane protein, SEQ ID NO:4 (protein, listed as Pseudomonas aeruginosa)", "chain": "MARFFIDRPVFAWVISLLIVLAGVLAIRFLPVAQYPDIAPPVVNVSASYPGASAKVVEEAVTAIIEREMNGAPGLLYTKATSSTGQASLTLTFRQGVNADLAAVEVQNRLKIVESRLPESVRRDGIYVEKAADSIQLIVTLTSSSGRYDAMELGEIASSNVLQALRRVEGVGKVETWGAEYAMRIWPDPAKLTSMNLSASDLVNAVRRHNARLTVGDIGNLGVPDSAPISATVKVDDTLVTPEQFGEIPLRIRADGGAIRLRDVARVEFGQSEYGFVSRVNQMTATGLAVKMAPGSNAVATAKRIRATLDELSRYFPEGVSYNIPYDTSAFVEISIRKVVSTLLEAMLLVFAVMYLFMQNFRATLIPTLVVPVALLGTFTVMLGLGFSINVLTMFGMVLAIGILVDDAIIVVENVERLMAEEGLSPHDATVKAMRQISGAIVGITVVLVSVFVPMAFFSGAVGNIYRQFAVTLAVSIGFSAFLALSLTPALCATLLRPIDADHHEKRGFFGWFNRAFLRLTGRYRNAVAGILARPIRWMLVYTLVIGVVALLFVRLPQAFLPEEDQGDFMIMVMQPEGTPMAETMANVGDVERYLAEHEPVAYAYAVGGFSLYGDGTSSAMIFATLKDWSERREASQHVGAIVERINQRFAGLPNRTVYAMNSPPLPDLGSTSGFDFRLQDRGGVGYEALVKARDQLLARAAEDPRLANVMFAGQGEAPQIRLDIDRRKAETLGVSMDEINTTLAVMFGSDYIGDFMHGSQVRKVVVQADGAKRLGIDDIGRLHVRNEQGEMVPLATFAKAAWTLGPPQLTRYNGYPSFNLEGQAAPGYSSGEAMQAMEQLMQGLPEGIAHEWSGQSFEERLSGAQAPALFALSVLIVFLALAALYESWSIPLAVILVVPLGVLGALLGVSLRGLPNDIYFKVGLITIIGLSAKNAILIIEVAKDHYQEGMSLLQATLEAARLRLRPIVMTSLAFGFGVVPLALSSGAGSGAQVAIGTGVLGGIVTATVLAVFLVPLFFLVVGRLFRLRKAPRTGNSPQIPTEQA"}, "B2": {"name": "YP_957870: Marinobacter aqueolei efflux pump, accession of inner membrane protein, SEQ ID NO:1 (protein, listed as Marinobacter aqueolei)", "chain": "MINFFISRPVFSWVLAIVAMLAGIMAIFVLPVQRYPSVAPPAVEIQADYPGASADTVSNTVVQVIEQEMTGLDNLLYMGSTADSSGHATVTLTFAAGTDPDIAQVQVQNKLKLAEPRLPEVVRQQGISVEKSSTSFLMVMAFVSTDGRLSKLDIADFISSELAEPIGRVTGIGSVQVFGSEYAMRIWLDPSALTNYGLTVADVSAAIEAQNAQVTAGQLGGLPAVEGQQLNATVTAQTLLTSTEEFRNILLKSMPDGSRVRLGDVARVELGGGAVQIDTFYDGEPAAGLGINLAPGANSLAVTEAVKARLQELEPYFPEGVEIRYPYQTAPFVEASIDAVVTTIIEAIALVVLVMLVFLQSWRATLIPAIAIPVVLLGTFAIMAAFGFSINMLTLFGLVLAIGLLVDDAIVVVENVERVMHEDGLSPMEATRKSMGQIASALIGIGVVLSAVFIPMAFFPGSTGAIYRQFSLSIAGAMVLSVLVALILSPMLCGRILKPTHERTLLQKLFGWFEAGLGRLTRGYVRLVGHTARHAWLYTLAFLGIVGLVAVLFVRLPGGFLPAEDQGFAVVQYQLPAGATQQRTIDTIQVIEDYFMDQDEVQGLFTIAGFSFAGRAQNAGLAFVNLKPWSERDPETQSADAIIQRANRALAGLVRDGRAFAFNLPPIPELGQALGFELRLQDRGAIGHEALMAAQGQLLQLAAESPVLTSVRPNGLADNPRYKVDIDYEKAQALGIEPSEISRLLSVTWGSQYVNDFLHEGRVKRVYVQGDAPFRMLPEDFEAWYLRAANGEMTPLSEVTNGRWEYGSPRLERFNGVPSRQIQGEPAPGYSTGEAMAEVERLIAQLPDGVAGAWSGLSYQERQAGAQASLLYALSALVVFLALAALYESWTIPISVMLAVPLGVLGAVLAAMVRGLPNDVFFQVGILTTVGVTARNAILLVEFARSLEDQGMKLIEATKEAARVRLRPILMTSVAFGMGVLPLAFASGAGATTRIAIGTAVLGGMISATILATFFIPLFYVVVRRITDFLSGSRDQDDSAAAAPGRANGGVADDR"}, "B3": {"name": "YP_692684: Alcanivorax borkumensis SK2 efflux pump, accession of inner membrane protein, SEQ ID NO:2 (protein, listed as Alcanivorax borkumensis)", "chain": "MARFFIDRPIFAWVIAIIMMMAGALAIYTLPIEQYPTVAPPQVSIAGNYPGASAKTVEDSVTQVIEQQMNGIDNLLYMSSSSDSFGNAAVNLTFAPGTDPDIAQVQVQNKLQLATPLLPQEVQQQGMQVTKSSDSFLMVAGFTSEDGSLSRADLADYVASNVQDPVSRVPGVGQIQLFGSPYAMRVWLDPNKLNKFDLTPQDVTQTIEVQNNQVASGQLGGAPAVEGQQLNATIIAQTRLEDVDQFENILLKVNPDGSRVFLKDVARVELAAQNYDVQGRYNGQPAAGLAISLATGANALDTAEALRARLAELQPYFPDKMEMVFPYDTTPFVSISIEEVVHTLFEAIILVFLVMYLFLQNFRATLIPTLAVPVVLLGTFAVLAAFGFSINTLTMFGMVLAIGLLVDDAIVVVENVERVMHEEGLPPKEATRKSMGQITGALVGIALVLSAVFVPMAFFPGSTGAIYRQFSITIVSAMVLSVLVALILTPALCATMLKAKDSEHQTDHGFFGWFNRTFDKSSRRYQGSVEKILGRRGRYLFIYVVIVGVLGFSFMRLPSSFLPEEDQGILFTLVTLPAGSTQEQTVKVLEKMEDYYLNEEASAVDGLFTVAGFSFTGRGQNAGMAFVNLKDWSERDLSVDGADNVVARAMGYFSTIREAMMFALNPPSIPELGNASGFDFQLLDQSGQGHEALIQARNQMLGMAAQDPRLAGVRPNGLEDSPQYQIDIDQQKAKALGLSISDINSTLQIAWGSSYVNNFVDRGRVKRVYVQADAPYRMLPENVNDWFVRNNQGKMVPFSTFATGHWTYGSPKLERYNGVSSVNIQGNAAPGYSTGDAMDAMEELSAKLPAGFGFEWTGMSYQERQSGDQAPALYVISLLVVFLCLAALYESWSIPFAVMLVVPLGILGAVLAATFRDLNNDVFFQVGLLTTIGLSAKNAILIAEFALELEQKGEHLLKATLEAVRMRLRPILMTSLAFMLGVTPLMISTGAGAGARNAIGTGVFGGMLTATVLAIFFIPLFYVAVRKLSGVPLDGKKKGKE"}, "B4": {"name": "NP_745594: Pseudomonas putida KT2440 efflux pump, accession of inner membrane protein, SEQ ID NO:3 (protein, listed as Pseudomonas putida)", "chain": "MPQFFIDRPVFAWVVALFILLAGALAIPQLPVAQYPNVAPPQVEIYAVYPGASAATMDESVVSLIEQELNGADNLLYFESQSSLGSATITATFAPGTHPDLAQVDVQNRLKVVESRLPRPVTQQGLQVEKVSTGFLLLATLTSEDGKLDETALSDILARNVMDEIRRLKGVGKAQLYGSERAMRIWIDPRKLIGFNLTPNDVAEAIAAQNAQVAPGSIGDLPSRSTQEITANVVVKGQLSSPDEFAAIVLRANPDGSTVTIGDVARVEIGAQEYQYGTRLNGKPATAFSVQLSPGANAMETATLVRAKMQDLARYFPEGVKYDIPYDTSPFVKVSIEQVINTLFEAMLLVFAVMFLFLQNLRYTLIPTLVVPVALMGTFAVMLAMGFSVNVLTLFGMVLAIGILVDDAIVVVENVERIMAEEGLPPKQATRKAMGQISGAIVGITLVLVAVFLPMAFMQGSVGVIYQQFSLSMAVSILFSAFLALSLTPALCATLLKPVAKGEHHERKGFFGWFNRRFESMSNGYQRWVVQALKRSGRYLLVYAVLLAVLGYGFSQLPTAFLPTEDQGYTITDIQLPPGASRMRTEQVAAQIEAHNAEEPGVGNTTLILGFSFSGSGQNAALAFTTLKDWSERGADDSAQSIADRATMAFTQLKDAIAYSVLPPPIDGLGESTGFEFRLQDRGGMGHAELMAARDQLLESASKSKVLTNVREASLAESPQVQLEIDRRQANALGVSFADIGTVLDVAVGSSYVNDFPNQGRMQRVVVQAEGDQRSQVEDLLNIHVRNDSGKMVPLGAFVQARWVSGPVQLTRYNGYPAVSISGEPAAGYSSGEAMAEVERLVAQLPAGTGLEWTGLSLQERLSGSQAPLLMALSLLVVFLCLAALYESWSIPTAVLLVVPLGVLGAVLAVTLRGMPNDVFFKVGLITLIGLSAKNAILIIEFAKHLVDQGVDAADAAVQAARLRLRPIVMTSLAFILGVVPLAIASGASSASQQAIGTGVIGGMLSATLAVVFVPVFFVVVMRLSGRRQAHDSDGQPVPRES"}},
  "tested_on": "E. coli DH1 ΔacrAB",
  "conditions": "for biofuel level that inhibited growth: added to pooled culture in M9 minimal medium, aimed at an inhibitory concentration that reduced growth by 25%; for outcome of efflux pump in competition: 2% geranyl acetate, serial dilution competition",
  "description": "In order to screen the efflux pump library against a variety of biofuels we devised a competition-based strategy to select for pumps that improved biofuel tolerance (FIG. 1A). Cells containing plasmids with individual pumps were grown separately and then pooled so that all individual strains were represented equally. This pooled culture was then grown both with and without biofuel, and maintained through serial dilutions every 10-14 hours over a total of 96 hours. At each dilution time point, plasmids from each culture were isolated and a custom microarray was used to quantify the amount of each efflux pump plasmid present in the culture (Methods).\nPooled culture glycerol stocks were used to inoculate M9 minimal medium with 30 μg/ml kanamycin and 10 μM IPTG. The culture was then divided into tubes to a final volume of 5 ml and biofuel was added directly to the tubes. All conditions were prepared in triplicate. Cultures were grown at 37° C. with orbital shaking at 200 rpm for all experiments.\nEvery 10-14 hours the cultures were diluted 1:100 into 5 ml of fresh M9 minimal medium with kanamycin, IPTG, and biofuel (where applicable). For the time-course assay, cultures were spun down at the completion of a growth cycle and plasmids were isolated. For end point competition assays, plasmid was isolated from the culture after 72 hours of serial dilution.\nCustom microarrays (NimbleGen, Roche, USA) were used to measure the relative quantities of the efflux pumps present in the plasmid DNA isolated from the competition cultures. Arrays were designed so that they contained probes for all HAE1 annotated efflux pumps from all sequenced bacterial genomes. 12×135K arrays were used to allow for 12 experiments per slide.\nPlasmid DNA was labeled and hybridized following the protocol for NimbleGen Comparative Genomic Hybridization Microarrays with minor modifications (Supporting Methods). Data were normalized using the standard settings for RMA analysis in the NimbleScan software. Probe values were averaged using a custom Matlab script (Mathworks, Inc.). […] For the positive hybridization control, all library plasmids were prepared individually and combined in vitro in equal proportions. For the negative hybridization control, a plasmid with the same vector backbone as those in the library, but no efflux pump, was isolated from DH1 ΔacrAB. Both hybridization controls were labeled and hybridized to the array using the methods described above.\nThis required the use of a co-solvent in order to accurately pipette small volumes. In both cases dimethylformamide (DMF) was used as the co-solvent. […] Other biofuels were added directly without the use of a co-solvent.",
  "note": "Entries after “also recorded” stand apart in the source; their conditions may differ.",
  "data": [
    {"molecule": "CN(C)C=O", "note": "[DMF, dimethylformamide]", "values": [
      {"measurement": "toxicity limit to E. coli", "setting": "co-solvent amount present in the culture", "result": "> 0.2", "unit": "%"}
    ]},
    {"molecule": "CCCCCC(=O)OCC=C(C)CCC=C(C)CCC=C(C)C", "note": "[farnesyl hexanoate]", "values": [
      {"measurement": "biofuel level that inhibited growth", "result": 2.5, "unit": "% v/v"}
    ]},
    {"molecule": "C=C(C)[C@H]1CC=C(C)CC1", "note": "[limonene]", "values": [
      {"measurement": "biofuel level that inhibited growth", "result": 0.025, "unit": "% v/v"}
    ]},
    {"molecule": "CC1=CCC2CC1C2(C)C", "note": "(stereo not drawn) [α-pinene]", "values": [
      {"measurement": "biofuel level that inhibited growth", "result": 2, "unit": "% v/v"}
    ]},
    {"molecule": "B1", "values": [
      {"measurement": "outcome of efflux pump in competition", "result": "survived the competition"}
    ]},
    {"molecule": "B2", "values": [
      {"measurement": "outcome of efflux pump in competition", "result": "increase survival"}
    ]},
    {"molecule": "B3", "values": [
      {"measurement": "outcome of efflux pump in competition", "result": "increase survival; also recorded: best pump"}
    ]},
    {"molecule": "B4", "values": [
      {"measurement": "outcome of efflux pump in competition", "result": "survived the competition"}
    ]}
  ]
}
